This series has as its target UBE2L6. Nature of the series: reporter assay of Huesken 2005. The settings on record: siRNA.

Oligonucleotides are written 5' to 3', each unit as a sugar letter and its base; * is a phosphorothioate linkage, no mark a phosphodiester; rarer units and linkages stand in square brackets, end groups in braces. Plain capitals give the bases only. d = 2'-deoxy (DNA); r = 2'-OH (RNA)
Further: test concentration or dose not given here.

With “sense rArUrGrGrArCrCrUrCrGrCrUrGrArCrCrUrGrCdTdT / antisense rGrCrArGrGrUrCrArGrCrGrArGrGrUrCrCrArUdCdC”, the normalised inhibition (eCFP-eYFP dual reporter) worked out at 43.8%. In turn, “sense rArCrArCrArGrArArUrCrCrGrGrArGrCrUrGrUdTdT / antisense rArCrArGrCrUrCrCrGrGrArUrUrCrUrGrUrGrUdCdA” yielded a normalised inhibition (eCFP-eYFP dual reporter) of 85.4%. Under “sense rUrGrUrGrCrUrGrGrUrGrArArUrArGrArCrCrGdTdT / antisense rCrGrGrUrCrUrArUrUrCrArCrCrArGrCrArCrAdTdT” stands 59%; under “sense rUrUrCrCrCrGrCrCrGrGrArGrUrArUrCrCrGrUdTdT / antisense rArCrGrGrArUrArCrUrCrCrGrGrCrGrGrGrArAdGdC”, 43%.

As to “sense rCrArGrCrArGrUrGrArGrArArCrUrGrGrArArGdTdT / antisense rCrUrUrCrCrArGrUrUrCrUrCrArCrUrGrCrUrGdAdT”, the normalised inhibition (eCFP-eYFP dual reporter) came out at 74.9%. Under “sense rArCrCrUrGrCrGrGrArArCrCrUrGrUrCrCrArGdTdT / antisense rCrUrGrGrArCrArGrGrUrUrCrCrGrCrArGrGrUdAdT” stands 73.8%; under “sense rCrGrGrArUrGrGrArCrCrUrCrGrCrUrGrArCrCdTdT / antisense rGrGrUrCrArGrCrGrArGrGrUrCrCrArUrCrCrGdCdA”, 71.6%.

“sense rCrUrUrGrCrArCrCrArArGrArCrUrUrGrCrCrAdTdT / antisense rUrGrGrCrArArGrUrCrUrUrGrGrUrGrCrArArGdGdC” came in with a normalised inhibition (eCFP-eYFP dual reporter) of 89.6%.

In the case of “sense rCrCrUrArCrCrCrGrArCrCrArArCrCrUrCrCrCdTdT / antisense rGrGrGrArGrGrUrUrGrGrUrCrGrGrGrUrArGrGdAdG”, the normalised inhibition (eCFP-eYFP dual reporter) was 55.6%. In turn, “sense rGrUrGrGrCrArCrGrCrUrCrUrCrCrUrCrCrUrAdTdT / antisense rUrArGrGrArGrGrArGrArGrCrGrUrGrCrCrArCdAdC” yielded a normalised inhibition (eCFP-eYFP dual reporter) of 96.9%. The value for “sense rArArArGrCrCrUrUrCrArArCrCrUrGrCrGrCrAdTdT / antisense rUrGrCrGrCrArGrGrUrUrGrArArGrGrCrUrUrUdCdA” was 69.8%; that for “sense rCrUrGrArCrArCrArGrArArUrCrCrGrGrArGrCdTdT / antisense rGrCrUrCrCrGrGrArUrUrCrUrGrUrGrUrCrArGdCdA” was 79.6%; that for “sense rArGrCrGrArUrGrArUrGrCrCrArArUrGrUrCrCdTdT / antisense rGrGrArCrArUrUrGrGrCrArUrCrArUrCrGrCrUdGdG” was 87.3%.

Consider “sense rArCrCrArCrCrCrCrArArCrGrUrGrGrArCrGrAdTdT / antisense rUrCrGrUrCrCrArCrGrUrUrGrGrGrGrUrGrGrUdAdG”, for which the normalised inhibition (eCFP-eYFP dual reporter) stood at 64.9%. Regarding “sense rCrUrCrCrUrArCrCrCrGrArCrCrArArCrCrUrCdTdT / antisense rGrArGrGrUrUrGrGrUrCrGrGrGrUrArGrGrArGdGdA”, the normalised inhibition (eCFP-eYFP dual reporter) worked out at 63.5%. Under “sense rGrGrArUrGrGrArCrCrUrCrGrCrUrGrArCrCrUdTdT / antisense rArGrGrUrCrArGrCrGrArGrGrUrCrCrArUrCrCdGdC” stands 80.5%. Substance “sense rUrCrArArGrCrCrUrCrCrCrArUrGrArUrCrArAdTdT / antisense rUrUrGrArUrCrArUrGrGrGrArGrGrCrUrUrGrAdAdC” showed a normalised inhibition (eCFP-eYFP dual reporter) of 86.7%. The substance “sense rCrCrGrArArUrArUrCrArGrGrGrArGrCrCrCrCdTdT / antisense rGrGrGrGrCrUrCrCrCrUrGrArUrArUrUrCrGrGdTdC” registered a normalised inhibition (eCFP-eYFP dual reporter) of 50%.

Regarding “sense rCrUrUrCrCrCrGrCrCrGrGrArGrUrArUrCrCrGdTdT / antisense rCrGrGrArUrArCrUrCrCrGrGrCrGrGrGrArArGdCdT”, the normalised inhibition (eCFP-eYFP dual reporter) came to 38.1%.

For the origin of these results see the OligoGym collection.
